Test system: C26 cells
Assay: Metabolic activity of C26 cells after fatty acid pre-incubation and chemotherapy incubation
Assay type: cell-based, Murine
Conditions: 4 days pre-incubation with 50 µM fatty acid, medium removed, compared to control, p< 0.0001 for EPA or DPA
Protocol: C = mice receiving control diet B, TB = tumor-bearing mice receiving control diet, TB-SNC = tumor-bearing mice receiving the specific nutritional combination.
Prior to chemotherapy incubations, C26 cells were pre-incubated for 4 days with EPA, DHA or DPA in a final concentration of 50 µM. To avoid direct interaction between fatty acids and chemotherapeutics, the medium containing fatty acids was removed before the addition of chemotherapy. The cells were incubated for 24 hr with the chemotherapeutics cisplatin and doxorubicin, after incubation the metabolic activity was measured.

CC/C=C\C/C=C\C/C=C\C/C=C\C/C=C\C/C=C\CCC(=O)O [DHA, docosahexanoic acid]
metabolic activity after cisplatin treatment (then 24 hr cisplatin): no significant changes in metabolic activity | metabolic activity of doxorubicin treated cells (then 24 hr doxorubicin): no significant changes in metabolic activity

— patent EP2696861B1, “COMBINATION OF EPA, DPA AND/OR DHA WITH A CHEMOTHERAPEUTIC AGENT” (priority 2011, dated 2012)
